Counter-ions that a name gives are not always drawn.
Target: T1, IRAK4 (Homo sapiens, UniProt Q9NWZ3)
T1 construct: expressed in transfected cells; host or cells: K562 IRAK4-HiBiT cells
T1 sequence (Q9NWZ3 1-460): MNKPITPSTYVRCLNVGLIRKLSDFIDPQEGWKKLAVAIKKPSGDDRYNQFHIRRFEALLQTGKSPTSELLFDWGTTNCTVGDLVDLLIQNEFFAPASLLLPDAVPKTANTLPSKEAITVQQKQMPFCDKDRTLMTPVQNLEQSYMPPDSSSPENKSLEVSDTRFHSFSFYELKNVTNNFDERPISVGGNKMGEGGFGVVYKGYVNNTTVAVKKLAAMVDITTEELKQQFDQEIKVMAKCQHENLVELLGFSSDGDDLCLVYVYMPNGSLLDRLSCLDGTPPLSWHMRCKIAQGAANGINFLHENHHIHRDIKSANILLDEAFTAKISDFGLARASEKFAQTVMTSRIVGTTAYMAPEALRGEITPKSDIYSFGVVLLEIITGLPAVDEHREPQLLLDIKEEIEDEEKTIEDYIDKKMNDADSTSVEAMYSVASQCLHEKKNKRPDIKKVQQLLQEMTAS
Experiment: Target protein degradation effect in K562 IRAK4-HiBiT cells (Nano-Glo HiBiT)
Type: cell-based
Settings: incubated 16 to 18 hours
Method: Experimental purpose: In this experiment, the degradation effect of the test compound on the target protein IRAK4 in K562 IRAK4-HiBiT cells was detected.
• Cells: K562 IRAK4-HiBiT cells • Culture media: RPMI 1640+10% FBS+2 mM GlutaMax+1 mM sodium pyruvate+penicillin/streptomycin • Positive control: 1000 nM; negative control: 0.1% DMSO
• (1). The compound to be tested in powder form was dissolved in DMSO to 10 mM as a storage concentration, and 9 μL of the 10 mM compound to be tested was manually pipetted to column 1 and column 13 of an LDV plate using a pipette; • (2). 6 μL of DMSO was added to columns 2 to 12 and 14 to 24 using Multidrop Combi; [0688](3). the compound to be tested was 3-fold diluted (3 μL+6 μL) from columns 1 to 11 and 13 to 23 using Bravo; • (4). 25 nL of compound solution (columns 1 to 24 of the LDV plate) was transferred to an assay plate using Echo according to the plate layout; • (5). 25 nL of 1 mM positive control solution was transferred to the assay plate as a 100% degradation control (i.e., LC, HPE) and 25 nL of DMSO was transferred to the assay plate as a 0% control (i.e., HC, ZPE) using Echo.
• (1). The cell culture medium was discarded, and the cells were washed once with DPBS, digested with trypsin, and counted to prepare a cell suspension of […]; • (2). 25 µL/well of cell suspension was added to the assay plate containing the compound to be tested using Multidrop Combi at medium speed; • (3). the assay plate containing cells was returned to an incubator with 5% CO2 at 37° C. and incubated for 16 to 18 hours.
• (1). 25 µL/well of assay reagent (NanoGlo lysis buffer+substrate+LgBit protein) was added to the assay plate using Multidrop Combi at high speed, and the plate was shaken for 10 minutes; • (2). the plate was centrifuged at 2000 rpm for 1 minute to remove air bubbles; • (3). the plate was read on Envision using US Luminescence detection method.
The inhibition rate (IR) of the test compound was calculated using the following formula: IR (%)=(RLU vehicle control−RLU compound)/(RLU vehicle control−RLU positive control)×100%, and the vehicle control is the blank control. The inhibition rates of compounds at different concentrations were calculated in Excel, and then XLFit software was used to plot inhibition curves and calculate relevant parameters, including minimum inhibition rate, maximum inhibition rate, and DC50.

O=C1CCC(c2noc3c(NC(=O)CN4CCN(C[C@H]5CC[C@H](n6cc(NC(=O)c7cnn8ccc(N9C[C@H]%10C[C@@H]9CO%10)nc78)c(C(F)F)n6)CC5)CC4)cccc23)C(=O)N1 (some centres unmarked) [Hydrochloride of WX015]
DC50: 4.12 nM
Maximum inhibition rate: 106.70%

— patent US20250127905A1, “GLUTARIMIDE COMPOUND AND USE THEREOF” (MEDSHINE DISCOVERY INC., priority 2021, published 2025)
